The term MIC denotes the smallest concentration in the dilution series that meets the test's criterion for growth inhibition.

The text below walks through data of PMC6063448, “Antimicrobial activity of linear lipopeptides derived from BP100 towards plant pathogens” (PLoS ONE, 2018).

Series [1] deals with tobacco leaves. Kind of series: Effect of peptide infiltration on tobacco leaves. Format: in vivo. To be noted: 100 μL infiltrated, after 48 h. The method, then:
BP100 and the 36 lipopeptides were evaluated for their effect upon infiltration on tobacco leaves as described previously. Peptide solutions of 50, 150 and 250 μM were infiltrated (100 μL) into the mesophylls of fully expanded tobacco leaves. Infiltrations were carried out in a single leaf, and for each peptide and dose, at least three leaves randomly distributed in different plants were inoculated. Control infiltrations with water (negative control) or melittin (positive control) at the same molar concentration were performed. The appearance of symptoms on the leaves was followed for 48 h after infiltration and measured as a lesion diameter.

For series [2], the system named is Erwinia amylovora PMV6076. Kind of series: MIC, growth inhibition in microtiter plates (TSB). The settings on record: Ea, 25°C, 48 h, OD 600 nm, lowest concentration with no growth, given as interval of tested concentrations, three replicates, experiment repeated twice. Format: cell-based. The gist of the method: (§1)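 OD600 readout, hourly over 48 h at 25°C, 20 s shaking; TSB medium; inoculum from 10^8 CFU mL^-1 water suspension; triplicates, experiment run twice; MIC = lowest concentration showing no growth at endpoint.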

Series [3] concerns Pseudomonas syringae pv. actinidiae Psa3700.1.1. Kind of series: MIC, growth inhibition in microtiter plates (TSB). In kind it is cell-based. To be noted: Psa, 25°C, 48 h, OD 600 nm, lowest concentration with no growth, given as interval of tested concentrations, three replicates, experiment repeated twice. Put shortly: (§2)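 The MIC is the lowest peptide concentration showing no growth after 48 h at 25 °C, with growth followed hourly by OD600 in TSB (triplicate wells, experiment repeated twice). Inocula came from 10^8 CFU mL^-1 suspensions of cells grown 24 h, or 48 h for X. fragariae, at 25 °C.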

Series [4] deals with Pseudomonas syringae pv. syringae EPS94. Kind of series: MIC, growth inhibition in microtiter plates (TSB). In kind it is cell-based. To be noted: Pss, 25°C, 48 h, OD 600 nm, lowest concentration with no growth, given as interval of tested concentrations, three replicates, experiment repeated twice. Put shortly: as §2
The subject of series [5] is Xanthomonas arboricola pv. pruni CFBP5563. Kind of series: MIC, growth inhibition in microtiter plates (TSB). Format: cell-based. To be noted: Xap, 25°C, 48 h, OD 600 nm, lowest concentration with no growth, given as interval of tested concentrations, three replicates, experiment repeated twice. The gist of the method:
as §2

Series [6] relates to Xanthomonas axonopodis pv. vesicatoria 2133–2. Kind of series: MIC, growth inhibition in microtiter plates (TSB). Format: cell-based. The settings on record: Xav, 25°C, 48 h, OD 600 nm, lowest concentration with no growth, given as interval of tested concentrations, three replicates, experiment repeated twice. The gist of the method: as §1
For series [7], the system named is Xanthomonas fragariae Xf349-9A. Kind of series: MIC, growth inhibition in microtiter plates (TSB). In kind it is cell-based. To be noted: Xf, 25°C, 48 h, OD 600 nm, lowest concentration with no growth, given as interval of tested concentrations, three replicates, experiment repeated twice. Put shortly: as §2
Series [8] concerns Fusarium oxysporum f. sp. lycopersici FOL 3 race 2. As to the kind of experiment: MIC, antifungal growth inhibition in microtiter plates (PDB). Format: cell-based. The settings on record: Fo, 22°C, seven days, OD 600 nm, lowest concentration with no growth, given as interval of tested concentrations, three replicates, experiment repeated twice. The gist of the method: (§3)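 Conidial suspensions (10^3 conidia/mL P. expansum, 10^4 F. oxysporum) incubated with peptides in PDB with 0.003% chloramphenicol at 22 °C for seven days, OD600 read every 2 h. MIC is the lowest concentration with no growth at the end; triplicates, experiment repeated twice.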

For series [9], the system named is Penicillium expansum EPS26. The series is described as above. In kind it is cell-based. The settings on record: Pe, 22°C, seven days, OD 600 nm, lowest concentration with no growth, given as interval of tested concentrations, three replicates, experiment repeated twice. Put shortly:
as §3

As for `CC[C@H](C)[C@H](NC(=O)CN)C(=O)NCC(=O)N[C@@H](C)C(=O)N[C@H](C(=O)N[C@@H](CC(C)C)C(=O)N[C@@H](CCCCN)C(=O)N[C@H](C(=O)N[C@@H](CC(C)C)C(=O)N[C@H](C(=O)N[C@H](C(=O)NCC(=O)N[C@@H](CC(C)C)C(=O)N1CCC[C@H]1C(=O)N[C@@H](C)C(=O)N[C@@H](CC(C)C)C(=O)N[C@H](C(=O)N[C@@H](CO)C(=O)N[C@@H](Cc1c[nH]c2ccccc12)C(=O)N[C@H](C(=O)N[C@@H](CCCCN)C(=O)N[C@@H](CCCNC(=N)N)C(=O)N[C@@H](CCCCN)C(=O)N[C@@H](CCCNC(=N)N)C(=O)N[C@@H](CCC(N)=O)C(=O)N[C@@H](CCC(N)=O)C(N)=O)[C@@H](C)CC)[C@@H](C)CC)[C@@H](C)O)[C@@H](C)O)C(C)C)C(C)C` [melittin, reference compound], the “Diameter of necrotic area in infiltrated tobacco leaves” value was found to be 1.1 cm in series [1] (50 μM) and 2.3 cm in [1] (250 μM).
As to `CCCCCC(=O)NCCCC[C@H](NC(=O)[C@H](Cc1ccccc1)NC(=O)[C@H](CC(C)C)NC(=O)[C@H](CCCCN)NC(=O)[C@H](CCCCN)NC(C)=O)C(=O)N[C@@H](CCCCN)C(=O)N[C@H](C(=O)N[C@@H](CC(C)C)C(=O)N[C@@H](CCCCN)C(=O)N[C@@H](Cc1ccc(O)cc1)C(=O)N[C@@H](CC(C)C)C(N)=O)[C@@H](C)CC` [BP372, Ac-KKLFK(COC5H11)KILKYL-NH2], the MIC in [2] fell in the range of 6.2 to 12.5 µM; in [3], 6.2 to 12.5 µM; in series [4], 6.2 to 12.5 µM; in series [5] it was 3.1 to 6.2 µM; in series [6], 6.2 to 12.5 µM; in series [7] it was 3.1 to 6.2 µM. Also, the MIC in series [8] was 0.8 to 1.6 µM; in series [9] it was 6.2 to 12.5 µM.
As for `CCCC(=O)N[C@@H](CCCCN)C(=O)N[C@@H](CCCCN)C(=O)N[C@@H](CC(C)C)C(=O)N[C@@H](Cc1ccccc1)C(=O)N[C@@H](CCCCN)C(=O)N[C@@H](CCCCN)C(=O)N[C@H](C(=O)N[C@@H](CC(C)C)C(=O)N[C@@H](CCCCN)C(=O)N[C@@H](Cc1ccc(O)cc1)C(=O)N[C@@H](CC(C)C)C(N)=O)[C@@H](C)CC` [BP379, C3H7CO-KKLFKKILKYL-NH2], the minimum inhibitory concentration (MIC) in [2], in series [3], in [4], in series [5], in [6] and in [7] was 3.1 to 6.2 µM throughout. Also, the values for the MIC in [8] and in series [9] were 3.1 to 6.2 µM and 6.2 to 12.5 µM, respectively.
With `CCCCCC(=O)NCCCC[C@H](NC(=O)[C@H](CCCCN)NC(=O)[C@H](CC(C)C)NC(=O)[C@@H](NC(=O)[C@H](CCCCN)NC(=O)[C@H](CCCCN)NC(=O)[C@H](Cc1ccccc1)NC(=O)[C@H](CC(C)C)NC(=O)[C@H](CCCCN)NC(=O)[C@H](CCCCN)NC(C)=O)[C@@H](C)CC)C(=O)N[C@@H](CC(C)C)C(N)=O` [BP377, Ac-KKLFKKILKK(COC5H11)L-NH2], the minimal inhibitory concentration (MIC) lay in the range of 3.1 to 6.2 µM in series [2]; 3.1 to 6.2 µM in series [3]; 3.1 to 6.2 µM in [4]; 3.1 to 6.2 µM in [5]; 6.2 to 12.5 µM in series [6]; 3.1 to 6.2 µM in series [7]. The MIC in series [8] lay in the range of 0.8 to 1.6 µM; in series [9], 3.1 to 6.2 µM.
Take `CCCC(=O)NCCCC[C@H](NC(=O)[C@H](Cc1ccccc1)NC(=O)[C@H](CC(C)C)NC(=O)[C@H](CCCCN)NC(=O)[C@H](CCCCN)NC(C)=O)C(=O)N[C@@H](CCCCN)C(=O)N[C@H](C(=O)N[C@@H](CC(C)C)C(=O)N[C@@H](CCCCN)C(=O)N[C@@H](Cc1ccc(O)cc1)C(=O)N[C@@H](CC(C)C)C(N)=O)[C@@H](C)CC` [BP384, Ac-KKLFK(COC3H7)KILKYL-NH2]: the MIC was in the range of 3.1 to 6.2 µM in [2]; 6.2 to 12.5 µM in series [3]; 6.2 to 12.5 µM in series [4]; 3.1 to 6.2 µM in series [5]; 1.6 to 3.1 µM in [6]; 1.6 to 3.1 µM in series [7]. For the same compound, the MIC in [8] fell in the range of 1.6 to 3.1 µM; in [9], 12.5 to 25 µM.
Regarding `CCCCCCCCCCCC(=O)NCCCC[C@H](NC(=O)[C@H](Cc1ccc(O)cc1)NC(=O)[C@H](CCCCN)NC(=O)[C@H](CC(C)C)NC(=O)[C@@H](NC(=O)[C@H](CCCCN)NC(=O)[C@H](CCCCN)NC(=O)[C@H](Cc1ccccc1)NC(=O)[C@H](CC(C)C)NC(=O)[C@H](CCCCN)NC(=O)[C@H](CCCCN)NC(C)=O)[C@@H](C)CC)C(N)=O` [BP402, Ac-KKLFKKILKYK(COC11H23)-NH2], the MIC in series [2] was 3.1 to 6.2 µM; in [3], 3.1 to 6.2 µM; in series [4] it was 3.1 to 6.2 µM; in series [5], 1.6 to 3.1 µM; in [6] it was 1.6 to 3.1 µM; in series [7], 3.1 to 6.2 µM. Moreover, the figures for the minimum inhibitory concentration (MIC) in series [8] and in [9] were 6.2 to 12.5 µM and 12.5 to 25 µM, respectively.
In the case of `CCCC(=O)NCCCC[C@H](NC(=O)[C@H](CC(C)C)NC(=O)[C@H](CCCCN)NC(=O)[C@H](CCCCN)NC(C)=O)C(=O)N[C@@H](CCCCN)C(=O)N[C@@H](CCCCN)C(=O)N[C@H](C(=O)N[C@@H](CC(C)C)C(=O)N[C@@H](CCCCN)C(=O)N[C@@H](Cc1ccc(O)cc1)C(=O)N[C@@H](CC(C)C)C(N)=O)[C@@H](C)CC` [BP383, Ac-KKLK(COC3H7)KKILKYL-NH2], the minimum inhibitory concentration (MIC) in [2] lay within 6.2 to 12.5 µM; in series [3], 6.2 to 12.5 µM; in [4] it was 6.2 to 12.5 µM; in [5] it was 6.2 to 12.5 µM; in series [6], 3.1 to 6.2 µM; in [7], 3.1 to 6.2 µM. Moreover, the minimal inhibitory concentration (MIC) in [8] lay in the range of 0.8 to 1.6 µM; in [9], 6.2 to 12.5 µM.
As to `CCCC(=O)NCCCC[C@H](NC(C)=O)C(=O)N[C@@H](CCCCN)C(=O)N[C@@H](CC(C)C)C(=O)N[C@@H](Cc1ccccc1)C(=O)N[C@@H](CCCCN)C(=O)N[C@@H](CCCCN)C(=O)N[C@H](C(=O)N[C@@H](CC(C)C)C(=O)N[C@@H](CCCCN)C(=O)N[C@@H](Cc1ccc(O)cc1)C(=O)N[C@@H](CC(C)C)C(N)=O)[C@@H](C)CC` [BP380, Ac-K(COC3H7)KLFKKILKYL-NH2], the MIC lay in the range of 3.1 to 6.2 µM in [2]; 6.2 to 12.5 µM in [3]; 6.2 to 12.5 µM in series [4]; 3.1 to 6.2 µM in series [5]; 3.1 to 6.2 µM in [6]; 3.1 to 6.2 µM in series [7]. Also, the MIC in [8] is 0.8 to 1.6 µM; in [9] it was 3.1 to 6.2 µM.
